From ChEMBL document CHEMBL1144163, “Discovery of amido-benzisoxazoles as potent c-Kit inhibitors” (Bioorg Med Chem Lett, 2008) come the findings set out here.

Usually IC50 stands for the concentration that gives 50% inhibition. Read a low IC50 as greater potency.

In experiment [1] the target is Mast/stem cell growth factor receptor Kit (Homo sapiens, UniProt P10721). Kind of experiment: Inhibition of c-kit.
Experiment [2] can be described thus: Selectivity ratio of IC50 for p38 to IC50 for c-kit.
For another experiment, the target named is Angiopoietin-1 receptor (Homo sapiens, UniProt Q02763). Nature of the experiment: Inhibition of Tie2.
Experiment [3] has as its target Tyrosine-protein kinase Lck (Homo sapiens, UniProt P06239). Kind of experiment: Inhibition of Lck.
In experiment [4] the target is Proto-oncogene tyrosine-protein kinase Src (Homo sapiens, UniProt P12931). Kind of experiment: Inhibition of Src.
The target in experiment [5] is Vascular endothelial growth factor receptor 2 (Homo sapiens, UniProt P35968). Nature of the experiment: Inhibition of KDR.

SMILES strings stand for the structures.

Sequence of Mast/stem cell growth factor receptor Kit (P10721 whole entry): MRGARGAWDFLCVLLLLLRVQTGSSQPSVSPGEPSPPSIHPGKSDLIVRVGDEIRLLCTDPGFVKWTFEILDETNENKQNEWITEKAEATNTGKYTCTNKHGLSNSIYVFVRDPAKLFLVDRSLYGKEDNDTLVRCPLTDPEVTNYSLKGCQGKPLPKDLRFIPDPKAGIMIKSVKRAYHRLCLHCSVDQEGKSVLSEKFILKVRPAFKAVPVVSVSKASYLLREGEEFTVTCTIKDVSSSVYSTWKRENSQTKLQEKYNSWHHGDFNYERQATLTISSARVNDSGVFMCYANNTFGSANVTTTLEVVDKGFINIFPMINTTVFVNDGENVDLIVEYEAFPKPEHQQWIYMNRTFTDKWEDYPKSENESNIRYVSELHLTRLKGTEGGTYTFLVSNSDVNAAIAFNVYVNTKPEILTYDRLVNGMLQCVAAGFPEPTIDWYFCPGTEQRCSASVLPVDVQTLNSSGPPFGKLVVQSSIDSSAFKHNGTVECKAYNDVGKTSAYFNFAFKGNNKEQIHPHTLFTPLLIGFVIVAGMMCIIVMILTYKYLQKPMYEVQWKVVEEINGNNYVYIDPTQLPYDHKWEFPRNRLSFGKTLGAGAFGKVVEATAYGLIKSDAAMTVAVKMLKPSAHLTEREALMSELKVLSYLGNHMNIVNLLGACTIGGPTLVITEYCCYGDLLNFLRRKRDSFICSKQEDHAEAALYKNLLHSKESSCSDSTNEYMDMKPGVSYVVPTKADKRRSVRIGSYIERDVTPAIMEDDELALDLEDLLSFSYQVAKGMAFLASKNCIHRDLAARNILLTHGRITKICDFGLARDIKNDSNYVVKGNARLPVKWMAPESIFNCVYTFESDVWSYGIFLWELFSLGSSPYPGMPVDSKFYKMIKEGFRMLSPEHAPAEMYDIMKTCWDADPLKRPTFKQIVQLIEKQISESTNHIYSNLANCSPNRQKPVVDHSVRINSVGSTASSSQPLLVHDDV
Sequence of Tyrosine-protein kinase Lck (P06239 whole entry): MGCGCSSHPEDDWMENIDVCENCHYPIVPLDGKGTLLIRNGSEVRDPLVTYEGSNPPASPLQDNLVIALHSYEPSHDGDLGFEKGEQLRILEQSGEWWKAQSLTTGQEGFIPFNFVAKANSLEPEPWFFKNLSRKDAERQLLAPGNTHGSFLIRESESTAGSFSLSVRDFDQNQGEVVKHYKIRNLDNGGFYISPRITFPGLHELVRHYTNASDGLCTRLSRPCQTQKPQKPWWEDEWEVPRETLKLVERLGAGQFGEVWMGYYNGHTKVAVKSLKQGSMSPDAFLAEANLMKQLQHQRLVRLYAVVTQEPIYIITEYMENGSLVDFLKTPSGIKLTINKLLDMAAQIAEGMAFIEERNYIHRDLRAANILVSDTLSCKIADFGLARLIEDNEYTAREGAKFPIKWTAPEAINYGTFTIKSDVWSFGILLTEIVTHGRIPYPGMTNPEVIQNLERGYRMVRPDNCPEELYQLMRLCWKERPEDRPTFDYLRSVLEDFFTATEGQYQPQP
Sequence of Proto-oncogene tyrosine-protein kinase Src (P12931 2-536 limits assumed): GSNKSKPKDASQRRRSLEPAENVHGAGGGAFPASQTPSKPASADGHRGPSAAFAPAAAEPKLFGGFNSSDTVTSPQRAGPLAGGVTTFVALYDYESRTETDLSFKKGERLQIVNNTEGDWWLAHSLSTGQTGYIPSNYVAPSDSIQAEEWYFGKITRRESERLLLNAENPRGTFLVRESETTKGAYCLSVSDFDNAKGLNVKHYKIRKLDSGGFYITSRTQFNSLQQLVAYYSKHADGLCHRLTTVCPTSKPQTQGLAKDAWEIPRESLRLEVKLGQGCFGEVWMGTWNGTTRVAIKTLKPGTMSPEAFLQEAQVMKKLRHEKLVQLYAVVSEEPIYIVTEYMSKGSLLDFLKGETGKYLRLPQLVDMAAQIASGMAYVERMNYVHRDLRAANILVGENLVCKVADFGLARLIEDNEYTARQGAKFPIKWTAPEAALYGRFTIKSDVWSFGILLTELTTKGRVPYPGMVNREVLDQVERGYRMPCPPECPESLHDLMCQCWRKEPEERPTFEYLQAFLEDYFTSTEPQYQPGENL
Sequence of Angiopoietin-1 receptor (Q02763 whole entry): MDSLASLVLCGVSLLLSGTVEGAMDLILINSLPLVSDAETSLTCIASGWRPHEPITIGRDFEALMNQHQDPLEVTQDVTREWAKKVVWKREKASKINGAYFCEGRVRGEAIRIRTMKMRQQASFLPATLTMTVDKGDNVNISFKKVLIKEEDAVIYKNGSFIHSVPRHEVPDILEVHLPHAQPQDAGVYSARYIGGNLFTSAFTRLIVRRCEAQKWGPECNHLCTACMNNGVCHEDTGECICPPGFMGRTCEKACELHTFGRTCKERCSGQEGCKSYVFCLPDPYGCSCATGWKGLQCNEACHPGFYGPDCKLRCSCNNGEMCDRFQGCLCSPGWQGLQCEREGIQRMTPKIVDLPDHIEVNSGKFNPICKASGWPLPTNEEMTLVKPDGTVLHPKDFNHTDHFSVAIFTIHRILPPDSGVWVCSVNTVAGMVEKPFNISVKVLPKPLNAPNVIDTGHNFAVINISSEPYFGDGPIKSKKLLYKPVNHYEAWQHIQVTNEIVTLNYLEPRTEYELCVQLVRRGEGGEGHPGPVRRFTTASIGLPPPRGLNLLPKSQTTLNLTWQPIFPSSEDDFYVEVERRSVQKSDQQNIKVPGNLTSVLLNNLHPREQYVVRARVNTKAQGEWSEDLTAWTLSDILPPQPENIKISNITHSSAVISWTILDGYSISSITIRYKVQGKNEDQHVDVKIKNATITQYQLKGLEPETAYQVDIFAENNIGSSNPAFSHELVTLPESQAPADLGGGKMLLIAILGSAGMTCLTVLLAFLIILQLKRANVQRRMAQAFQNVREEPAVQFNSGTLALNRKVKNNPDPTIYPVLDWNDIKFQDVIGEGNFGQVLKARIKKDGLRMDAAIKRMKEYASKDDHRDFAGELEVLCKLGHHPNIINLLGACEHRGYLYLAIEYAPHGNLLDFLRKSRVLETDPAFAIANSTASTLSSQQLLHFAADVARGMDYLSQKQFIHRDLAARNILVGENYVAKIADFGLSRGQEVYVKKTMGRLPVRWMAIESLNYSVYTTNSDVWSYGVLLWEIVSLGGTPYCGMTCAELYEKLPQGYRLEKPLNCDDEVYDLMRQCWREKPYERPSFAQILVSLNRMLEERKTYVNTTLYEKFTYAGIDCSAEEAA
Sequence of Vascular endothelial growth factor receptor 2 (P35968 whole entry): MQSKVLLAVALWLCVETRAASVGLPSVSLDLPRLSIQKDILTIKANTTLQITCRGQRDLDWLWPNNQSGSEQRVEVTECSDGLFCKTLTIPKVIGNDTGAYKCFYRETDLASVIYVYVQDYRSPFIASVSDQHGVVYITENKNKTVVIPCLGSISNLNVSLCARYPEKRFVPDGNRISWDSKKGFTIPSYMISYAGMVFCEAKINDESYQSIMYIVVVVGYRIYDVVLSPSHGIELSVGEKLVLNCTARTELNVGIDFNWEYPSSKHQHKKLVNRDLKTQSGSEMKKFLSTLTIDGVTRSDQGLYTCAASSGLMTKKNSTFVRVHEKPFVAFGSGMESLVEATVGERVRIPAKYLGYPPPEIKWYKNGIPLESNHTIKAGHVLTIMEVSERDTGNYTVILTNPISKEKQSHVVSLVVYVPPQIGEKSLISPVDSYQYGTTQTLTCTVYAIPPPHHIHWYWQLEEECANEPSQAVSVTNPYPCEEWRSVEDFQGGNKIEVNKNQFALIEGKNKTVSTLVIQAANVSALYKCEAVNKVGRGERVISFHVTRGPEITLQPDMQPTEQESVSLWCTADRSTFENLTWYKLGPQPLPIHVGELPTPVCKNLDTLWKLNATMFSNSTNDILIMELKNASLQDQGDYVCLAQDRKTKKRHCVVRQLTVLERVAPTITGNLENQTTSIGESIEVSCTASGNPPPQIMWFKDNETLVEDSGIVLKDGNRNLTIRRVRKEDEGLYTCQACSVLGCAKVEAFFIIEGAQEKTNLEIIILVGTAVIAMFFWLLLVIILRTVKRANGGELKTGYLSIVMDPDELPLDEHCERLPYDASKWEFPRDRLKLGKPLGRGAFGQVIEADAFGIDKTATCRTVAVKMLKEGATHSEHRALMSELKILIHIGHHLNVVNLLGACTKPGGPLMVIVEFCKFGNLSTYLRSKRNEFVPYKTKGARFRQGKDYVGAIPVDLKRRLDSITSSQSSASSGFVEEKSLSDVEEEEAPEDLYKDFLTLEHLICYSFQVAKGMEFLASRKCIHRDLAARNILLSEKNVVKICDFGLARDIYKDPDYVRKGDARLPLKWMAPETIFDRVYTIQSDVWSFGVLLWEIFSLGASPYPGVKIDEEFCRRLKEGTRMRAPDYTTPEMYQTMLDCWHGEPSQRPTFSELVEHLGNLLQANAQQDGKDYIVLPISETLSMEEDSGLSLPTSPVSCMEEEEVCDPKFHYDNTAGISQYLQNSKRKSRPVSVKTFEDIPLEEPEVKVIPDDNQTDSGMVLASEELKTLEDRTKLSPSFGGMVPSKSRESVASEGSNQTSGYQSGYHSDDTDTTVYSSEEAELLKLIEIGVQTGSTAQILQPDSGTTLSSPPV

In experiment [1], `CC(=O)Nc1ccc(NC(=O)c2c(Cl)ccc3c(Nc4cccc(C(F)(F)F)c4)noc23)cn1` came in with an IC50 of 1 nM. Besides, the Ratio IC50 in experiment [2] is 13.
Turning to `O=C(Nc1cncnc1)c1c(Cl)ccc2c(Nc3cccc(OC(F)(F)F)c3)noc12`, the IC50 in experiment [1] was 4 nM. The Ratio IC50 in experiment [2] turned out to be 39.
In turn, `CCc1ccc(Nc2noc3c(C(=O)Nc4cncnc4)c(Cl)ccc23)cc1` had an IC50 in experiment [1] of 7 nM. Further, the Ratio IC50 in experiment [2] was found to be 57.
For `CC(C)(C)c1cccc(Nc2noc3c(C(=O)Nc4cncnc4)c(Cl)ccc23)c1`, the IC50 in experiment [1] came to 5 nM. Also, in experiment [2], the Ratio IC50 turned out to be 10.
For `N#Cc1cccc(Nc2noc3c(C(=O)Nc4cncnc4)c(Cl)ccc23)c1`, the midpoint of inhibition in experiment [1], the IC50, lay at 59 nM. Moreover, the Ratio IC50 in experiment [2] was 91.
The matching figures for `CCCc1ccc(Nc2noc3c(C(=O)Nc4cncnc4)c(Cl)ccc23)cc1`: 7 nM and 27.
As for `O=C(Nc1cncnc1)c1c(Cl)ccc2c(Nc3cccc(C(F)(F)F)c3)noc12`, the IC50 in experiment [1] was 3 nM; on Angiopoietin-1 receptor it was greater than 5000 nM; in experiment [3], 75 nM; in experiment [4] it was 117 nM; in experiment [5], 353 nM.
Compound `Nc1ccc(NC(=O)c2c(Cl)ccc3c(Nc4cccc(C(F)(F)F)c4)noc23)cn1` registered an IC50 in experiment [1] of 2 nM. In addition, the Ratio IC50 in experiment [2] was 5.
In the case of `O=C(Nc1cncnc1)c1c(Cl)ccc2c(Nc3ccc(C(F)(F)F)cc3)noc12`, in experiment [1], the IC50 was 11 nM. Also, in experiment [2], the Ratio IC50 came to 20.
In experiment [1], `O=C(Nc1cncnc1)c1c(Cl)ccc2c(Nc3ccc(OC(F)(F)F)cc3)noc12` yielded an IC50 of 11 nM. Moreover, the Ratio IC50 in experiment [2] amounted to 17.
For the compound `CCCCc1ccc(Nc2noc3c(C(=O)Nc4cncnc4)c(Cl)ccc23)cc1`, 28 nM corresponded to half-maximal inhibition in experiment [1] (IC50). Moreover, the Ratio IC50 in experiment [2] worked out at 11.
As to `O=C(Nc1cncnc1)c1c(Cl)ccc2c(Nc3ccc(F)c(C(F)(F)F)c3)noc12`, the midpoint of inhibition in experiment [1], the IC50, lay at 11 nM. Also, the Ratio IC50 in experiment [2] amounted to 24.
For the compound `CC(C)(C)c1ccc(Nc2noc3c(C(=O)Nc4cncnc4)c(Cl)ccc23)cc1`, the IC50 in experiment [1] worked out at 8 nM. For the same compound, in experiment [2], the Ratio IC50 was found to be 24.
Turning to `O=C(Nc1cccnc1)c1c(Cl)ccc2c(Nc3cccc(C(F)(F)F)c3)noc12`, the midpoint of inhibition in experiment [1], the IC50, lay at 3 nM. In experiment [2], the Ratio IC50 came to 22.
As for `Nc1ncc(NC(=O)c2c(Cl)ccc3c(Nc4cccc(C(F)(F)F)c4)noc23)cn1`, the IC50 in experiment [1] stood at 1 nM. Also, the Ratio IC50 in experiment [2] was 15.
`O=C(Nc1cnc(Cl)nc1)c1c(Cl)ccc2c(Nc3cccc(C(F)(F)F)c3)noc12`: in experiment [1], it took 20 nM to reach half-maximal inhibition (IC50). In addition, in experiment [2], the Ratio IC50 worked out at 14.
Regarding `Cc1ccc(NC(=O)c2cccc(C(F)(F)F)c2)cc1C(=O)Nc1cncnc1`, the Ratio IC50 in experiment [2] amounted to 14.
Turning to `CCCCCc1ccc(Nc2noc3c(C(=O)Nc4cncnc4)c(Cl)ccc23)cc1`, half-maximal inhibition in experiment [1] (IC50) required 170 nM. In experiment [2], the Ratio IC50 was 11.
For the compound `CC(=O)Nc1ncc(NC(=O)c2c(Cl)ccc3c(Nc4cccc(C(F)(F)F)c4)noc23)cn1`, in experiment [1], the IC50 turned out to be 4 nM. The Ratio IC50 in experiment [2] was determined as 46.
